Tested on: NIH-OVCAR3 human ovarian tumor cells
Test: Efficacy in OVCAR3 xenograft model (tumor volume)
Format: in vivo, female CB.17 SCID mice
Details: dosed for 42 days
Text: OVCAR3: NIH-OVCAR3 human ovarian tumor cells (15×10^6/mouse) were implanted subcutaneously in female CB.17 SCID mice. The mice were randomized into groups of eight for efficacy, based on tumor volume and treated with either vehicle (0.5% HPMC/0.1% Tween 80), AZD5153; olaparib or the combination of AZD5153 and olaparib approximately 10 days after implantation. AZD5153 was formulated in 0.5% HPMC/0.1% Tween 80 and dosed orally for 42 days. Olaparib was formulated in 50% of 30% w/v HP-β-CD (Kleptose) in purified water and also dosed for 42 days. For the combination groups, olaparib was dosed daily for 42 days and AZD5153 was dosed either daily, for 7 days on and 14 days off for 2 cycles or 14 days on and 7 days off for 2 cycles. Tumor length and width was measured by caliper and tumor volume was calculated using the formula (length×width^2)*π/6 then reported as tumor volume.

In the case of `COc1nnc2ccc(N3CCC(c4ccc(OCCN5CCN(C)C(=O)[C@H]5C)cc4)CC3)nn12` [AZD5153, (3R)-4-[2-[4-[1-(3-Methoxy-[1,2,4]triazolo[4,3-b]pyridazin-6-yl)-4-piperidyl]phenoxy]ethyl]-1,3-dimethyl-piperazin-2-one], the “efficacy (tumor volume) as monotherapy” value is reported as “modestly efficacious”.

For `O=C(c1cc(Cc2n[nH]c(=O)c3ccccc23)ccc1F)N1CCN(C(=O)C2CC2)CC1` [olaparib, 4-[(3-{[4-(cyclopropylcarbonyl)piperazin-1-yl]carbonyl}-4-fluorophenyl)methyl]phthalazin-1(2H)-one], the “efficacy (tumor volume) as monotherapy” value was “modestly efficacious”.

Source: patent US20230038138A1, “COMBINATION THERAPY FOR TREATING CANCER” (ASTRAZENECA AB, priority 2020, published 2023)
